Data on 33 compounds can be found in the supplement of paper PMC5412046.

Assay [1] concerns SB.mhdgc-1. Description: AC50 for growth inhibition (viability) (log10 M); higher = less potent. The settings on record: SB.mhdgc-1 (hereditary c.1380delA CDH1 gastric cancer). Summed up:
(§1)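 In 1536-well plates, each well held 500 patient-derived gastric cancer cells (hereditary or sporadic) in 5 μL medium. Compound in DMSO, 23 nL per well, was pinned in 11 threefold dilutions starting at a final 46 μM. Following 48 h of exposure, cells had CellTiter-Glo for 30 min at room temperature before ViewLux luminescence reading. Only high-quality curve classes from four-parameter fits of DMSO-normalised viability gave the log half-maximal activity concentration.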

The test system of assay [2] is SB.msgc-1. The description is as above. The settings on record: SB.msgc-1 (sporadic gastric cancer). Summed up: as §1

Consider `Cc1ccc(NC(=O)C2(c3ccc4c(c3)OC(F)(F)O4)CC2)nc1-c1cccc(C(=O)O)c1` [Lumacaftor], for which the “AC50 for growth inhibition (log10 M)” value in assay [1] was -6.73; in assay [2] it was -7.63.

`ClC1=CC=C2N/C3=N/C(=O)CN3CC2=C1Cl` [anagrelide]: the “AC50 for growth inhibition (log10 M)” value in assay [1] is -4.73; in assay [2], -4.78.

In the case of `O=C(Nc1cc(C(F)(F)F)cc(C(F)(F)F)c1)c1cc(Cl)ccc1O` [IMD-0354], the “AC50 for growth inhibition (log10 M)” value in assay [1] is -5.78; in assay [2] it was -5.73.

As to `C[C@]1(O)CC(C1)C2=NC(=C3[N]2C=CN=C3N)C4=CC5=C(C=C4)C=CC(=N5)C6=CC=CC=C6` (stereo unspecified) [Linsitinib], the figures for the “AC50 for growth inhibition (log10 M)” value in assay [1] and in assay [2] were -5.03 and -4.78, respectively.

`COc1cc2nc(N3CCCN(C)CC3)nc(NC3CCN(Cc4ccccc4)CC3)c2cc1OC`: the “AC50 for growth inhibition (log10 M)” value in assay [1] was -5.28; in assay [2], -4.88.

With `CNC(=O)c1cccc(-c2ccc3c(N4CCOC[C@@H]4C)nc(N4CCOC[C@@H]4C)nc3n2)c1` [AZD-2014], the “AC50 for growth inhibition (log10 M)” value is -7.33 in assay [1] and -7.03 in assay [2].

Turning to `COc1c(C)c2c(c(O)c1C/C=C(\C)CCC(=O)O)C(=O)OC2` [Mycophenolic acid], the “AC50 for growth inhibition (log10 M)” value in assay [1] is -5.48; in assay [2] it was -5.93.

As for `C[C@@H]1CN[C@H]2[C@@H](C)[C@@]\3(CC[C@H]\4[C@@H]5C/C=C6/C[C@@H](O)CC[C@]6(C)[C@H]5CC4=C3C)O[C@@H]2C1` [Cyclopamine], the “AC50 for growth inhibition (log10 M)” value was -4.68 in assay [1] and -4.73 in assay [2].

With `O=C(O)C1CCCN(CCC=C(c2ccccc2)c2ccccc2)C1` (stereo unspecified), the “AC50 for growth inhibition (log10 M)” value in assay [1] was -5.53; in assay [2] it was -5.03.

On to `CC1=C(CC(=O)O)c2cc(F)ccc2/C1=C\c1ccc([S+](C)[O-])cc1` (stereo unspecified) [Sulindac], for which the “AC50 for growth inhibition (log10 M)” value in assay [1] is -5.93; in assay [2], -5.53.

For `CC1(C)CC\C2=C(/O1)C3=C(C=CC=C3)C(=O)C2=O` [beta-Lapachone], the “AC50 for growth inhibition (log10 M)” value in assay [1] is -4.58; in assay [2] it was -4.63.

For the compound `O=C(c1ccc(F)c(F)c1Nc1ccc(I)cc1F)N1CC(O)([C@H]2CCCCN2)C1` [Cobimetinib], the “AC50 for growth inhibition (log10 M)” value in assay [1] is -4.78; in assay [2], -5.28.

As to `CC/1=C/C(=O)N(O)/C(=C1)C2CCCCC2` [ciclopirox], the “AC50 for growth inhibition (log10 M)” value was -4.73 in assay [1] and -5.43 in assay [2].

Turning to `Nc1ncnc2c1c(-c1cnc3[nH]ccc3c1)nn2C1CCCC1` [PP-121], the “AC50 for growth inhibition (log10 M)” value in assay [1] is -5.78; in assay [2], -5.38.

Consider `Cc1ccc([N+](=O)[O-])cc1[S+](=O)([O-])N(C)/N=C/c1cnc2ccc(Br)cn12` [PIK-75], for which the “AC50 for growth inhibition (log10 M)” value was -8.03 in assay [1] and -7.98 in assay [2].

As to `Cc1cccc(-c2[nH]c(C(C)(C)C)nc2-c2ccc3c(c2)OCO3)n1`, the “AC50 for growth inhibition (log10 M)” value is -4.83 in assay [1] and -4.88 in assay [2].

In the case of `OC[C@H]1OC(OC2=CC3=C(C(=C2)O)C(=O)\C(=C/O3)C4=CC=C(O)C=C4)[C@H](O)[C@@H](O)[C@@H]1O` (stereo partly specified) [Genistin], the “AC50 for growth inhibition (log10 M)” value in assay [1] was -5.78; in assay [2] it was -6.33.

As for `CC(=O)O[C@@]1(CC[C@H]2[C@@H]3\C=C(Cl)/C4=C/C(=O)[C@@H]5C[C@@H]5[C@]4(C)[C@H]3CC[C@]12C)C(C)=O` [Cyproterone acetate], the figures for the “AC50 for growth inhibition (log10 M)” value in assay [1] and in assay [2] were -5.08 and -4.68, respectively.

Consider `Cc1ccc([S+](=O)([O-])N[C@@H](Cc2ccccc2)C(=O)CCl)cc1` [TPCK], for which the “AC50 for growth inhibition (log10 M)” value is -4.78 in assay [1] and -4.73 in assay [2].

For `CC/C(=C(\c1ccccc1)c1ccc(OCCN(C)C)cc1)c1ccccc1` [Tamoxifen], the entries for the “AC50 for growth inhibition (log10 M)” value in assay [1] and in assay [2] were -4.68 and -4.73, respectively.

In the case of `COc1cc(NC(=O)c2ccc(-c3ccc(Cl)cc3)o2)cc(OC)c1`, the “AC50 for growth inhibition (log10 M)” value in assay [1] is -5.73; in assay [2] it was -5.58.

For `CCC(C)SSc1ncc[nH]1` (stereo unspecified) [PX-12], the “AC50 for growth inhibition (log10 M)” value was -4.63 in assay [1] and -4.58 in assay [2].

`CC1=C(/C=C/C(C)=C/C=C/C(C)=C\C(=O)O)C(C)(C)CCC1` [Isotretinoin]: the “AC50 for growth inhibition (log10 M)” value in assay [1] was -4.63; in assay [2], -5.33.

Regarding `COc1ccc([S+](=O)([O-])Nc2cc(-c3c(O)ccc4ccccc34)c(O)c3ccccc23)cc1` [C-188-9], the “AC50 for growth inhibition (log10 M)” value in assay [1] and in assay [2] was -4.73 in each case.

Regarding `CN(C)c1ccc(C(=O)NCCCCCCC(=O)NO)cc1` [M344], the “AC50 for growth inhibition (log10 M)” value in assay [1] was -5.83; in assay [2], -6.08.

Consider `CCNC(=O)c1cc2c(-c3cc(OCCN4CCCC4)c(Cl)cc3Cl)nc(N)nc2s1`, for which the figures for the “AC50 for growth inhibition (log10 M)” value in assay [1] and in assay [2] were -5.53 and -6.38, respectively.

On to `COc1ccc2c(c[n+](C)c3c4cc5c(cc4ccc23)OCO5)c1OC` [Chelerythrine chloride], for which the “AC50 for growth inhibition (log10 M)” value is -5.08 in assay [1] and -5.03 in assay [2].

In the case of `COc1cccc2c1C(=O)c1c(O)c3c(c(O)c1C2=O)C[C@@](O)(C(=O)CO)C[C@@H]3O[C@H]1C[C@H](N)[C@H](O[C@H]2CCCCO2)[C@H](C)O1` [Pirarubicin], the figures for the “AC50 for growth inhibition (log10 M)” value in assay [1] and in assay [2] were -6.08 and -5.68, respectively.

Take `C[C@H]1[C@@H](CC(C[C@H]2O[C@@H]3O[C@]4(C)CC[C@H]5[C@H](C)CC[C@@H]([C@H]2C)[C@@]35OO4)C[S+](=O)([O-])c2ccc(COC(=O)N(C)C)cc2)O[C@@H]2O[C@]3(C)CC[C@H]4[C@H](C)CC[C@@H]1[C@@]24OO3` [ASR-isobudimer-SO2Ph-4-CH2OC(O)NMe2]: the “AC50 for growth inhibition (log10 M)” value was -6.93 in assay [1] and -6.48 in assay [2].

`Cc1ccc(-c2ncn(-c3ccc(Nc4nccc(-c5cccc(N6CCOCC6)c5)n4)cc3)n2)cn1` [SR-3306]: the “AC50 for growth inhibition (log10 M)” value in assay [1] is -6.18; in assay [2], -7.13.

On to `C=C1/C(=C\C=C2/CCC[C@]3(C)[C@@H]([C@H](C)CCCC(C)(C)O)CC[C@@H]23)C[C@@H](O)C[C@@H]1O` [Calcitriol], for which the “AC50 for growth inhibition (log10 M)” value in assay [1] is -6.53; in assay [2], -5.63.

Take `CC[S+](=O)([O-])Nc1ccc2c(c1)/C(=C(/Nc1ccc(CN3CCCCC3)cc1)c1ccccc1)C(=O)N2` [Hesperadin]: the “AC50 for growth inhibition (log10 M)” value was -5.18 in assay [1] and -5.23 in assay [2].

Turning to `COc1cc2nccc(Oc3ccc(NC(=O)C4(C(=O)Nc5ccc(F)cc5)CC4)cc3)c2cc1OC` [Cabozantinib], the figures for the “AC50 for growth inhibition (log10 M)” value in assay [1] and in assay [2] were -6.33 and -5.48, respectively.
